For four compounds, concentration in supernatant results are on record in patent publication US5349127A, “Expression of herbicide metabolizing cytochromes P450” (priority 1992, dated 1994).

Data set [1] is described as follows: Incubation buffer without cells, time 0 (Examples 5-9, 11, 12). It is filed as in vitro ADME. As to conditions: no cells, 0 h. The method, then: (§1) A 100 ml culture of S. griseolus ATCC 11796 in sporulation broth and a 50 ml culture of S. lividans transformed with pCAO400 in YEME broth were prepared and incubated for 24 hours as described. At that time, the S. griseolus culture was split into two 50 ml aliquots into two separate flasks and 25 ml of fresh sporulation broth was added to each and 9 mg of […] was added to one of these cultures to induce cytochrome P450SU1 expression. Fresh YEME broth (25 ml) was added to the S. lividans culture. After an additional 6 hours growth at 30° C., the cells in each culture were harvested as described above, washed twice with MOPS (50 mM, pH 7.2) and recentrifuged. The cell pellets were resuspended in four cell volumes of MOPS (50 mM, pH 7.2) containing 0.2% glucose and about 100 μg/ml of 10004. These cell suspensions were incubated at 30° C. with shaking and aliqouts were taken at 2 and 5.5 hours. The supernatant of each aliquot was analyzed by HPLC and the concentrations of the sulfonylurea compound 10004 and its metabolite 10005 were determined.
(§2) S. lividans transformed respectively with pCAO200SU1-FeS-B#9, pCAO200SU#112and pCAO200 were cultured for 36 hours in 400 ml of YEME broth at 30° C. S. griseolus ATCC 11796 was similarly cultured in 400 ml of sporulation broth. Six hours before harvesting the cells, 150 ml of fresh YEME broth was added to the S. lividans cells, and the S. griseolus cells were split into two 200 ml cultures with 100 ml of fresh sporulation broth added to each. 10001 (36 mg) was added to one of the two S. griseolus cultures to induce cytochrome P450SU1. The cells were prepared as described above in Example 5 and the concentrations of the sulfonylurea compound 10006 and its metabolites 10007, 10008 or 10009 were determined.
(§3) S. lividans transformed with pCAO200SU2-FeS-A#11 and S. lividans transformed with pCAO200 were cultured for 36 hours in 400 ml of YEME broth at 30° C. S. griseolus PH2001 (mutant without SU1) was cultured in 400 ml of sporulation broth at 30° C. Nine hours before harvesting the cells, the S. griseolus PH2001 culture was divided into two 200 ml cultures. Both received 100 ml of fresh sporulation broth and one received 36 mg of 10001 to induce cytochrome P450SU2. The cells were prepared as described above in Example 6 and the concentrations of the sulfonylurea compound 10001 and its metabolites 10002 and 10003 were determined.

Data set [2] deals with S. lividans pCAO200SU1#12. In words: Sulfonylurea metabolism by washed cell suspension (Examples 6-9). Format: in vitro ADME, Streptomyces lividans.
Data set [3] relates to S. griseolus PH2001 induced with 10001. The data set can be described thus: Sulfonylurea metabolism by washed cell suspension (Examples 11-12). Format: in vitro ADME, Streptomyces griseolus. The method, then:
as §1, §2, §3

Data set [4] relates to S. griseolus PH2001 uninduced. The description is as above. Format: in vitro ADME, Streptomyces griseolus. On the procedure: as §1, §2, §3
The next data set has as its system S. ambofaciens PH3834. In words: Metabolism of 10001 by strains transformed with pPAT108 (Example 14). Format: in vitro ADME, Streptomyces ambofaciens. As to conditions: substrate 10001 120 ug/ml. On the procedure:
(§4) S. griseolus PH2003, S. griseus PH4001, S. ambofaciens PH4002, and S. lividans JI1326 were transformed with the plasmid pPAT108. The transformed S. griseolus strain, PH3826, was cultured for 24 hours in 150 mls of sporulation broth with 5 ug/ml thiostrepton. The transformed S. griseus strain, PH3832, and the transformed S. ambofaciens strain, PH3834, were cultured for 24 hours in 150 mls of trypticase soy broth with 5 ug/ml thiostrepton. The transformed S. lividans strain, PH3822, was similarly cultured in 150 mls of YEME broth with 5 ug/ml thiostrepton. Three hours before harvesting the cells, 50 mls of fresh medium of the same type with 5 ug/ml thiostrepton was added to each culture. The cells from each of the cultures were harvested by centrifugation, washed twice with 50 mMMOPS, pH7.2 and resuspended in five cell volumes of MOPS containing 0.2% glucose and 120 ug/ml of the sulfonylurea 10001. The cell suspensions were incubated at 30° C. with shaking and aliquots were removed at 0.5, 1, 2 and 4 hours. The supernatant of each aliquot was analyzed by HPLC and the concentration of the sulfonylurea compound 10001 and its metabolites 10002 and 10003 were determined.

Another data set concerns S. griseus PH3817. In words: Metabolism of 10001 by strains transformed with pCS325 (Example 15). As to conditions: substrate 10001. It is filed as in vitro ADME, Streptomyces griseus. The method, then:
as §4
(§5) S. griseolus PH2003, S. griseus PH4001, S. ambofaciens PH4002, and S. lividans JI1326 were transformed with the plasmid pCS325. Cells of the transformed strains of S. griseolus PH3809, S. griseus PH3817, S. ambofaciens PH3818, and S. lividans PH3816, were grown and treated as described in Example 14, and the concentrations of the sulfonylurea compound 10001 and its metabolites 10002 and 10003 were determined.

Another data set concerns S. lividans PH3816. The data set is described as above. As to conditions: substrate 10001. It is filed as in vitro ADME, Streptomyces lividans. The method, then:
as §4, §5

In the case of `CCOC(=O)c1ccccc1S(=O)(=O)NC(=O)Nc1nc(Cl)cc(OC)n1` [compound 10001, N-[(4-chloro-6-methoxy-pyrimidin-2-yl)aminocarbonyl]-2-ethoxycarbonylbenzenesulfonamide], the concentration in supernatant stood at 291 µM in data set [1] (Example 8, substrate 10001); 279 µM in data set [1] (Example 11, substrate 10001); 276 µM in data set [2] (substrate 10001, 4 h); 276 µM in data set [2] (substrate 10001, 6 h); 286 µM in data set [3] (substrate 10001, 2 h); 256 µM in data set [3] (substrate 10001, 4 h). The concentration in supernatant in data set [3] (substrate 10001, 6 h) was 234 µM; in data set [4] (substrate 10001, 2 h) it was 271 µM; in data set [4] (substrate 10001, 4 h), 264 µM; in data set [4] (substrate 10001, 6 h) it was 244 µM; in the data set with S. ambofaciens PH3834 (1.0 h) it was 278 µM; with S. ambofaciens PH3834 (2.0 h), 250 µM. Also, the concentration in supernatant in the data set on S. ambofaciens PH3834 (4.0 h) turned out to be 191 µM; with S. griseus PH3817 (0.5 h), 226 µM; in the data set with S. griseus PH3817 (1.0 h), 181 µM; with S. griseus PH3817 (2.0 h) it was 69 µM; in the data set with S. griseus PH3817 (4.0 h), 0 µM; in the data set on S. lividans PH3816 (0.5 h), 331 µM. The concentration in supernatant with S. lividans PH3816 (1.0 h) turned out to be 339 µM; in the data set with S. lividans PH3816 (2.0 h), 299 µM; in the data set with S. lividans PH3816 (4.0 h), 248 µM.

For the compound `CCOC(=O)c1ccccc1S(=O)(=O)NC(=O)Nc1nc(O)cc(Cl)n1` [compound 10002, N-[(4-chloro-6-hydroxy-pyrimidin-2-yl)aminocarbonyl]-2-ethoxycarbonylbenzenesulfonamide], the concentration in supernatant is 2 µM in data set [2] (substrate 10001, 2 h); 4 µM in data set [2] (substrate 10001, 4 h); 6 µM in data set [2] (substrate 10001, 6 h); 6 µM with S. ambofaciens PH3834 (0.5 h); 11 µM in the data set on S. ambofaciens PH3834 (1.0 h); 27 µM in the data set on S. ambofaciens PH3834 (2.0 h). The concentration in supernatant was 64 µM in the data set on S. ambofaciens PH3834 (4.0 h); 37 µM in the data set with S. griseus PH3817 (0.5 h); 73 µM in the data set with S. griseus PH3817 (1.0 h); 167 µM in the data set with S. griseus PH3817 (2.0 h); 220 µM with S. griseus PH3817 (4.0 h); 19 µM with S. lividans PH3816 (0.5 h). For the same compound, the concentration in supernatant in the data set on S. lividans PH3816 (1.0 h) was found to be 36 µM; in the data set with S. lividans PH3816 (2.0 h), 68 µM; in the data set with S. lividans PH3816 (4.0 h), 103 µM.

As to `COc1cc(Cl)nc(NC(=O)NS(=O)(=O)c2ccccc2C(=O)O)n1` [compound 10003, N-[(4-chloro-6-methoxy-pyrimidin-2-yol)aminocarbonyl]-2-carboxybenzenesulfonamide], the concentration in supernatant amounted to 0 µM in data set [1] (Example 8, substrate 10001); 0 µM in data set [1] (Example 11, substrate 10001); 2 µM in data set [2] (substrate 10001, 2 h); 4 µM in data set [2] (substrate 10001, 4 h); 5 µM in data set [2] (substrate 10001, 6 h); 7 µM in data set [3] (substrate 10001, 2 h). Moreover, the concentration in supernatant turned out to be 10 µM in data set [3] (substrate 10001, 4 h); 13 µM in data set [3] (substrate 10001, 6 h); 1 µM in data set [4] (substrate 10001, 2 h); 2 µM in data set [4] (substrate 10001, 4 h); 3 µM in data set [4] (substrate 10001, 6 h); 1 µM in the data set with S. ambofaciens PH3834 (0.5 h). Moreover, the concentration in supernatant was 6 µM with S. ambofaciens PH3834 (1.0 h); 14 µM with S. ambofaciens PH3834 (2.0 h); 33 µM with S. ambofaciens PH3834 (4.0 h); 3 µM in the data set on S. griseus PH3817 (0.5 h); 7 µM in the data set with S. griseus PH3817 (1.0 h); 16 µM in the data set on S. griseus PH3817 (2.0 h). The concentration in supernatant in the data set on S. griseus PH3817 (4.0 h) came out at 23 µM; in the data set on S. lividans PH3816 (0.5 h) it was 1 µM; in the data set with S. lividans PH3816 (1.0 h), 3 µM; in the data set on S. lividans PH3816 (2.0 h), 7 µM; in the data set on S. lividans PH3816 (4.0 h), 11 µM.

As to `COC(=O)c1ccccc1S(=O)(=O)NC(=O)Nc1nc(C)cc(C)n1` [compound 10010, N-[(4,6-dimethylpyrimidin-2-yl)aminocarbonyl]-2-methoxycarbonylbenzenesulfonamide], the concentration in supernatant in data set [1] (Example 7, substrate 10010) is 87 µM; in data set [1] (Example 12, substrate 10010) it was 88 µM; in data set [2] (substrate 10010, 2 h), 90 µM; in data set [2] (substrate 10010, 4 h), 85 µM; in data set [2] (substrate 10010, 6 h), 80 µM; in data set [3] (substrate 10010, 2 h), 64 µM. The concentration in supernatant was found to be 56 µM in data set [3] (substrate 10010, 4 h); 50 µM in data set [3] (substrate 10010, 6 h); 89 µM in data set [4] (substrate 10010, 2 h); 88 µM in data set [4] (substrate 10010, 4 h); 89 µM in data set [4] (substrate 10010, 6 h).
